Results on two molecules are retold here after EP0520554A2, “C-21 hydroxylated FK-506 antagonist” (MERCK & CO. INC., priority 1991, dated 1992).

The test system of the experiment is mouse T-cells activated with ionomycin + PMA. The experiment can be described thus: T-cell proliferation assay (ionomycin plus PMA induced T-cell stimulation, tritiated thymidine uptake). Type of experiment: cell-based, C57B1/6 mice. The protocol: The principle of this assay is to measure the proliferation of mouse T lymphocytes stimulated with the combination of ionomycin plus PMA. […] Cells were pelleted by centrifugation at 1500 rpm for 8 minutes. Contaminating red cells were removed by treating the pellet with ammonium chloride lysing buffer (GIBCO) for 2 minutes at 4°C. Cold medium was added and cells were again centrifuged at 1500 rpm for 8 minutes. T lymphocytes were then isolated by separation of the cell suspension on nylon wool columns as follows: Nylon wool columns were prepared by packing approximately 4 grams of washed and dried nylon wool into 20 ml plastic syringes. The columns were sterilized by autoclaving at 250°F for 30 minutes. Nylon wool columns were wetted with warm (37°C) culture medium and rinsed with the same medium. Washed spleen cells resuspended in warm medium were slowly applied to the nylon wool. The columns were then incubated in an upright position at 37°C for 1 hour. Non-adherent T lymphocytes were eluted from the columns with warm culture medium and the cell suspensions were spun as above. […] Ionomycin was added at 250 ng/ml and PMA at 10 ng/ml. The cell suspension was immediately distributed into 96 well flat-bottom microculture plates (Costar) at 200 µl/well. […] The proliferation of T lymphocytes was assessed by measurement of tritiated thymidine incorporation. After 44 hours of culturing, the cells were pulse-labelled with 2 µCi/well of tritiated thymidine (NEN, Cambridge, MA). After another 4 hours of incubation, cultures were harvested on glass fiber filters using a multiple sample harvester. Radioactivity of filter discs corresponding to individual wells was measured by standard liquid scintillation counting methods (Betacounter).

By inhibition is commonly meant the change of the read-out against control, counted positive when it falls.

Structures are written as SMILES.

For `CCC1(O)C=C(C)CC(C)CC(OC)C2OC(O)(C(=O)C(=O)N3CCCCC3C(=O)OC(C(C)=CC3CCC(O)C(OC)C3)C(C)C(O)CC1=O)C(C)CC2OC` (centres unmarked) [21-OH-590, C-21 hydroxylated FR-900520], the inhibition at 0.125 µg/mL (Mus musculus, T-cell, sample 125 ng/ml, no FK-506, tritiated thymidine uptake, harvest at 48 hours) was found to be 0%. Further, the inhibition at 0.25 µg/mL (Mus musculus, T-cell, sample 250 ng/ml, no FK-506, tritiated thymidine uptake, harvest at 48 hours) was 0%. Further, the inhibition at 0.5 µg/mL (Mus musculus, T-cell, sample 500 ng/ml, no FK-506, tritiated thymidine uptake, harvest at 48 hours) was 0%. For the setting “Mus musculus, T-cell, sample 1000 ng/ml, no FK-506, tritiated thymidine uptake, harvest at 48 hours”, the inhibition at 1 µg/mL was determined as 0%. The “% Inhibition + FK-506 (1.2 nM)” value (sample 125 ng/ml in presence of FK-506 1.2 nM, harvest at 48 hours) amounted to 94% and the “% Inhibition + FK-506 (1.2 nM)” value (sample 250 ng/ml in presence of FK-506 1.2 nM, harvest at 48 hours) is 63%.

Turning to `C=CC[C@@H]1/C=C(\C)C[C@H](C)C[C@H](OC)[C@H]2O[C@@](O)(C(=O)C(=O)N3CCCC[C@H]3C(=O)O[C@H](/C(C)=C/[C@@H]3CC[C@@H](O)[C@H](OC)C3)[C@H](C)[C@@H](O)CC1=O)[C@H](C)C[C@@H]2OC` [FK-506], under “Mus musculus, T-cell”, the inhibition at 0.01 µg/mL was 99%. Moreover, the inhibition at 0.0012 µM (Mus musculus, T-cell, read-out: % Inhibition + FK-506 (1.2 nM)) turned out to be 97%.
